Measured values as given in patent US5109003A, “Method for the treatment of peptic ulcer disease” (Hoechst Japan Limited, priority 1989, dated 1992).
Read-outs that look alike come from different tables or passages of the source.

Columns and labels:
in vivo [1] = conditions: mouse, mice
Excerpt: The intravenous or intraperitoneal LD50 values of the compounds of this invention and the reference compound (propentofylline) for mice are shown in Table 4.

[2] = test system: stress-induced gastric ulcer; assay: Protective effect on gastric ulcer induced by restraint plus water-immersion stress in rats; type: in vivo, rat (male Sprague-Dawley); conditions: for Ulcer index / inhibition in vivo at 10 mg/kg: 10 mg/kg p.o.; for Ulcer index: mean ± S.E.; for inhibition in vivo at 10 mg/kg: Rattus norvegicus, po
Description: 1.1. Protective Effect of Gastric Ulcer Induced by Restraint Plus Water-immersion Stress in Rats
Male Sprague-Dawley rats weighing 250-300 g were used in groups of 5-35. The animals were given the compounds by the oral route after fasting overnight. Immediately, under light ether anesthesia they were placed in a restraint box and immersed in water at 23° C. for 6 or 7 hours. Then the animals were sacrificed, and their stomachs were isolated, inflated with 8 ml of 1% formalin for 10 minutes, opened along the greater curvature, and examined for the presence of gastric erosions. The longest axis of each erosion induced on the glandular section of the stomach was measured, and the sum of the lengths was defined as an ulcer index.

[3] = test system: ethanol-induced gastric ulcer; assay: Protective effect on ethanol-induced gastric ulcer in rats; type: in vivo, rat (male Sprague-Dawley); conditions: 10 mg/kg p.o.; for Ulcer index: mean ± S.E.; for inhibition in vivo at 10 mg/kg: Rattus norvegicus, po, 1 h
Description: 1.2. Protective Effect on Ethanol-induced Gastric Ulcer in Rats
Male Sprague-Dawley rats weighing 300-400 g were used in groups of 4-36. After fasting overnight, the animals were given orally the compounds. Thirty minutes later they received absolute ethanol (1 ml/body) orally and were sacrificed after 60 minutes. The stomach was removed and examined for erosions. The ulcer index was obtained in the same way as under 1.1.

peptic ulcer = conditions: Ter. Arkh. 57, 52-55, 1985; JP Laid-Open 225317/88; cited from earlier work
in vivo [4] = conditions: mouse, mice, oral, read-out: oral LC50
[5] = ip, i.p., read-out: LD50 (intraperitoneal)
[6] = control distilled water (26.0 ± 2.2 mm)
[7] = iv, i.v., read-out: LD50 (intravenous)
[8] = control distilled water (93.1 ± 8.9 mm)
[9] = control 10% EtOH (32.9 ± 3.3 mm)
[10] = control 10% EtOH (78.9 ± 8.5 mm)

Row | SMILES | Ulcer index [2, 6] [mm] | inhibition in vivo at 10 mg/kg ([2]; vs. control distilled water) [%] | LD50 (in vivo [1]; [7]) [mg/kg] | Ulcer index [3, 8] [mm] | inhibition in vivo at 10 mg/kg ([3]; vs. control distilled water) [%] | also measured
1 | CCCn1cnc2c1c(=O)n(CCCCCC(C)(C)O)c(=O)n2C [Compound 11] | 16.0 ± 3.8 | 38.5 |  |  |  | LD50 (in vivo [1]; [5]): 150 to 300 mg/kg
2 | CCn1cnc2c1c(=O)n(CCCCCC(C)(C)O)c(=O)n2CC [Compound 13, 3,7-diethyl-1-(6-hydroxy-6-methylheptyl)-xanthine] | 5.0 ± 1.0 | 80.8 | > 200 | 15.7 ± 9.4 | 83.1 | 
3 | C=CCn1cnc2c1c(=O)n(CCCCC(C)(C)O)c(=O)n2CC [Compound 19, 7-Allyl-3-ethyl-1-(5-hydroxy-5-methylhexyl)-xanthine] | 10.2 ± 2.4 | 60.8 | > 100 | 5.2 ± 2.0 | 94.4 | 
4 | CC(=O)CCCCn1c(=O)c2c(ncn2C)n(C)c1=O [pentoxifylline] |  |  |  |  |  | antiulcer activity (in words, from literature) (peptic ulcer): antiulcer effects
5 | CCOCCn1c(=O)c2c(ncn2CCCCC(C)(C)O)n(C)c1=O [Compound 10] | 17.8 ± 3.3 | 31.5 | > 200 |  |  | 
6 | CCCn1cnc2c1c(=O)n(CCCCCC(C)(C)O)c(=O)n2CC [Compound 14, 3-Ethyl-1-(6-hydroxy-6-methylheptyl)-7-propylxanthine] |  |  | > 200 |  |  | Ulcer index [2, 9]: 4.8 ± 1.7 mm; inhibition in vivo at 10 mg/kg ([2]; vs. control 10% EtOH): 85.4%; Ulcer index [3, 10]: 3.7 ± 1.1 mm; inhibition in vivo at 10 mg/kg ([3]; listed under control 10% EtOH): 95.3%
7 | CCCn1cnc2c1c(=O)n(CCCCC(C)=O)c(=O)n2C [Compound 22, 1-(5'-oxohexyl)-3-methyl-7-propyl xanthine, reference compound] | 18.4 ± 3.0 | 29.2 |  |  |  | antiulcer activity (in words, from literature) (peptic ulcer): superior to that of pentoxifylline; Ulcer index [3, 10]: 34.7 ± 8.4 mm; inhibition in vivo at 10 mg/kg ([3]; listed under control 10% EtOH): 62.7%
8 | C=CCCn1c(=O)c2c(ncn2CCCCC(C)(C)O)n(CC)c1=O [Compound 21, 1-(3-Butenyl)-3-ethyl-7-(5-hydroxy-5-methylhexyl)-3-xanthine] |  |  |  | 19.2 ± 9.2 | 79.4 | 
9 | CCCn1cnc2c1c(=O)n(CCCCC(C)(C)O)c(=O)n2CC [Compound 1] | 8.7 ± 1.6 | 66.5 | 100 to 200 | 12.0 ± 6.9 | 87.1 | 
10 | CCCn1c(=O)c2c(ncn2CCCCC(C)(C)O)n(C)c1=O [Compound 8] | 12.1 ± 2.9 | 53.5 | 100 to 200 |  |  | 
11 | Cn1c(=O)n(CCCCC(C)(C)O)c(=O)c2[nH]cnc21 [Compound 5] | 7.5 ± 2.0 | 71.2 | > 200 |  |  | LD50 (in vivo [4]): > 2500 mg/kg
12 | CCn1c(=O)n(CCCCC(C)(C)O)c(=O)c2c1ncn2C [Compound 2] | 6.5 ± 1.6 | 75 | > 200 | 23.5 ± 7.0 | 74.8 | times more effective than propentofylline in improving stress-induced gastric ulcers ([2]; stress-induced gastric ulcers): 2.5 times
13 | CCOCn1cnc2c1c(=O)n(CCCCC(C)(C)O)c(=O)n2CC [Compound 18] | 6.9 ± 2.1 | 73.5 | > 200 | 16.8 ± 7.1 | 82 | 
14 | CCn1cnc2c1c(=O)n(CCCCC(C)(C)O)c(=O)n2CC [Compound 16, 3,7-Diethyl-1-(5-hydroxy-5-methylhexyl)-xanthine] | 6.8 ± 1.6 | 73.8 | > 200 | 17.0 ± 7.1 | 81.7 | 
15 | CCCCn1cnc2c1c(=O)n(CCCCC(C)(C)O)c(=O)n2CC [Compound 17, 7-Butyl-3-ethyl-1-(5-hydroxy-5-methylhexyl)-xanthine] |  |  |  |  |  | LD50 (in vivo [1]; [5]): > 600 mg/kg; Ulcer index [2, 9]: 12.5 ± 3.3 mm; inhibition in vivo at 10 mg/kg ([2]; vs. control 10% EtOH): 62%; Ulcer index [3, 10]: 13.0 ± 8.3 mm; inhibition in vivo at 10 mg/kg ([3]; listed under control 10% EtOH): 83.5%
16 | C=CCn1cnc2c1c(=O)n(CCCCC(C)(C)O)c(=O)n2C [Compound 20, 7-Allyl-1-(5-hydroxy-5-methylhexyl)-3-methylxanthine] | 10.6 ± 3.0 | 59.2 | > 100 |  |  | 
17 | CCn1c(=O)n(CCCCCC(C)(C)O)c(=O)c2c1ncn2C(C)C [Compound 15, 3-Ethyl-1-(6-hydroxy-6-methylheptyl)-7-isopropylxanthine] |  |  |  |  |  | LD50 (in vivo [1]; [5]): > 600 mg/kg; Ulcer index [2, 9]: 6.6 ± 1.6 mm; inhibition in vivo at 10 mg/kg ([2]; vs. control 10% EtOH): 79.9%; Ulcer index [3, 10]: 4.2 ± 2.2 mm; inhibition in vivo at 10 mg/kg ([3]; listed under control 10% EtOH): 94.7%
18 | C=CCCn1cnc2c1c(=O)n(CCCCC(C)(C)O)c(=O)n2C [Compound 6] |  |  |  |  |  | LD50 (in vivo [1]; [5]): 150 to 300 mg/kg; Ulcer index [2, 9]: 17.4 ± 4.5 mm; inhibition in vivo at 10 mg/kg ([2]; vs. control 10% EtOH): 47.1%
19 | CCn1c(=O)n(CCCCCC(C)(C)O)c(=O)c2c1ncn2C [Compound 4] | 10.6 ± 1.8 | 59.2 | 100 to 200 | 21.2 ± 8.4 | 77.2 | 
20 | Cn1c(=O)n(CCCCC(C)(C)O)c(=O)c2c1ncn2CCC(O)CO (stereo not drawn) [Compound 9] | 17.8 ± 3.3 | 31.5 | > 100 |  |  | 
21 | Cn1cnc2c1c(=O)n(CCCCC(C)(C)O)c(=O)n2C [Compound 7] | 15.8 ± 4.4 | 39.2 | > 200 |  |  | 
22 | CCCn1cnc2c1c(=O)n(CCCC(C)(O)CC)c(=O)n2C (stereo not drawn) [Compound 12] |  |  |  | 26.1 ± 10.8 | 72 | LD50 (in vivo [1]; [5]): 300 to 600 mg/kg
23 | CCCn1cnc2c1c(=O)n(CCCC(C)(C)O)c(=O)n2CC [Compound 3] | 12.8 ± 2.5 | 50.8 | > 200 |  |  | 
